Values joined by “and” are separate entries in the source; they are usually repeats but may differ in a detail not shown here. Equal entries are not always repeated. Toxic doses and inconclusive results are not listed. Rule for the calls: active = survival T/C of 150% or more; inactive = T/C below 125% in these data.
Tested on: P388 leukemia ip, CD2F1 mice, survival T/C
Experiment: NCI In Vivo Anticancer Drug Screen. Data for tumor model P388 Leukemia (intraperitoneal) in CD2F1 (CDF1) mice
Conditions: endpoint: median survival time, higher = longer survival
Outline: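 Mice carrying the transplanted tumor received test compound or vehicle. Survival was recorded in each group, and the value is the treated-group measurement divided by that of the vehicle-treated control group.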

[1] = dose: 25.0 mg/kg/injection, schedule: Q01DX005 (ip), vehicle: saline
[2] = dose: 50.0 mg/kg/injection, schedule: Q01DX005 (ip), vehicle: saline
[3] = dose: 100.0 mg/kg/injection, schedule: Q04DX002 (ip), vehicle: saline
[4] = dose: 200.0 mg/kg/injection, schedule: Q04DX002 (ip), vehicle: saline
[5] = dose: 60.0 mg/kg/injection, schedule: Q01DX005 (ip), vehicle: saline with Tween-80
[6] = dose: 120.0 mg/kg/injection, schedule: Q01DX005 (ip), vehicle: saline with Tween-80
[7] = dose: 240.0 mg/kg/injection, schedule: Q01DX005 (ip), vehicle: saline with Tween-80
[8] = dose: 50.0 mg/kg/injection, schedule: Q01DX009 (ip), vehicle: saline with Tween-80
[9] = dose: 50.0 mg/kg/injection, schedule: Q01DX005 (ip), vehicle: Klucel (hydroxypropylcellulose) (HPC)
[10] = dose: 100.0 mg/kg/injection, schedule: Q01DX005 (ip), vehicle: Klucel (hydroxypropylcellulose) (HPC)
[11] = dose: 200.0 mg/kg/injection, schedule: Q01DX005 (ip), vehicle: Klucel (hydroxypropylcellulose) (HPC)

Measured: T/C

Cc1nnc2sc3c(Cl)c4nn5c(C)nnc5sc4c(Cl)c3nn12
inactive: dose: 0.78 mg/kg/injection, schedule: Q01DX009 (ip), vehicle: saline with Tween-80 94 % of control | dose: 1.56 mg/kg/injection, schedule: Q01DX009 (ip), vehicle: saline with Tween-80 97 % of control | dose: 3.13 mg/kg/injection, schedule: Q01DX009 (ip), vehicle: saline with Tween-80 92 % of control

COc1cccc2c1C(=O)c1c(O)c3c(c(O)c1C2=O)C[C@@](O)(C(C)=O)C[C@@H]3OC1CC(N)C(OC2CC(N)C(OC)C(C)O2)C(C)O1 (some centres not stated)
inactive: dose: 3.13 mg/kg/injection, schedule: Q04DX003 (ip), vehicle: water 110 % of control and 115 % of control | dose: 6.25 mg/kg/injection, schedule: Q04DX003 (ip), vehicle: water 119 % of control and 123 % of control | dose: 50.0 mg/kg/injection, schedule: Q04DX003 (ip), vehicle: water 112 % of control

OCC[CH2][Pb]([c]1ccccc1)([c]1ccccc1)[c]1ccccc1
inactive: dose: 0.78 mg/kg/injection, schedule: Q01DX009 (ip), vehicle: Klucel (hydroxypropylcellulose) (HPC) 98 % of control and 105 % of control | dose: 1.56 mg/kg/injection, schedule: Q01DX009 (ip), vehicle: Klucel (hydroxypropylcellulose) (HPC) 100 % of control and 104 % of control and 111 % of control | dose: 3.13 mg/kg/injection, schedule: Q01DX009 (ip), vehicle: Klucel (hydroxypropylcellulose) (HPC) 104 % of control and 110 % of control and 112 % of control | dose: 6.25 mg/kg/injection, schedule: Q01DX009 (ip), vehicle: Klucel (hydroxypropylcellulose) (HPC) 113 % of control and 118 % of control

CC(N)C(O)C(C)C(=O)O (configuration not stated)
inactive: dose: 12.5 mg/kg/injection, schedule: Q01DX009 (ip), vehicle: water 111 % of control | dose: 25.0 mg/kg/injection, schedule: Q01DX009 (ip), vehicle: water 107 % of control | dose: 50.0 mg/kg/injection, schedule: Q01DX009 (ip), vehicle: water 107 % of control | dose: 100.0 mg/kg/injection, schedule: Q01DX009 (ip), vehicle: water 98 % of control | dose: 200.0 mg/kg/injection, schedule: Q01DX009 (ip), vehicle: water 102 % of control

CS(=O)(=O)CS(=O)CS(=O)CS(=O)CC(NC(=O)CCC(N)C(=O)O)C(=O)O (configuration not stated)
inactive: dose: 12.5 mg/kg/injection, schedule: Q01DX005 (ip), vehicle: saline 96 % of control | [1] 98 % of control | [2] 97 % of control | dose: 100.0 mg/kg/injection, schedule: Q01DX005 (ip), vehicle: suspension in saline 108 % of control

C=C1CC2(CCCCC2Cc2ccccc2)OC1=O (configuration not stated)
inactive: [3] 100 % of control | [4] 101 % of control | dose: 400.0 mg/kg/injection, schedule: Q04DX002 (ip), vehicle: saline 99 % of control

N#Cc1c2c(c(=O)n3c1[nH]c1ccccc13)CCCC2
inactive: [5] 93 % of control | [6] 94 % of control | [7] 90 % of control

CC(=O)OC1CSS(=O)CC1OC(C)=O (configuration not stated)
inactive: [3] 100 % of control | [4] 109 % of control

CNC(=O)C1CCC(=O)N1Cc1c[nH]c2ccccc12 (configuration not stated)
inactive: [5] 94 % of control | [6] 94 % of control | [7] 92 % of control

CCC(/C=N/N=C(N)N)=N\N=C(N)N
inactive: [2] 110 % of control | dose: 100.0 mg/kg/injection, schedule: Q01DX005 (ip), vehicle: saline 100 % of control

CC(C)NC(=O)OCCS(=O)c1c(Cl)c(Cl)nn1C (configuration not stated)
inactive: [5] 117 % of control | [6] 109 % of control

COC1NC(=S)N(C(C)(C)C)C1(C)C (configuration not stated)
inactive: dose: 12.5 mg/kg/injection, schedule: Q01DX009 (ip), vehicle: saline 99 % of control | dose: 25.0 mg/kg/injection, schedule: Q01DX009 (ip), vehicle: saline 100 % of control | dose: 50.0 mg/kg/injection, schedule: Q01DX009 (ip), vehicle: saline 107 % of control | dose: 50.0 mg/kg/injection, schedule: Q01DX009 (ip), vehicle: suspension in saline 97 % of control

CC(C)CNc1ccc(S(=O)(=O)c2ccc(NCC(C)C)c([N+](=O)[O-])c2)cc1[N+](=O)[O-]
inactive: dose: 6.25 mg/kg/injection, schedule: Q01DX009 (ip), vehicle: saline with Tween-80 98 % of control | dose: 12.5 mg/kg/injection, schedule: Q01DX009 (ip), vehicle: saline with Tween-80 92 % of control | dose: 25.0 mg/kg/injection, schedule: Q01DX009 (ip), vehicle: saline with Tween-80 87 % of control | [8] 93 % of control

O=C(NCCCCNC(=O)C12CC3CC(CC(C3)C1)C2)C12CC3CC(CC(C3)C1)C2
inactive: [9] 90 % of control | [10] 90 % of control | [11] 86 % of control

CCOC(=O)C1CCc2c(OC)c(C)cc(C)c2C1=O (configuration not stated)
inactive: [9] 103 % of control | [10] 103 % of control | [11] 95 % of control

Cc1ccc(S(=O)(=O)OCCC(C)(C)C)cc1
inactive: [8] 106 % of control | dose: 100.0 mg/kg/injection, schedule: Q01DX009 (ip), vehicle: saline with Tween-80 107 % of control | dose: 200.0 mg/kg/injection, schedule: Q01DX009 (ip), vehicle: saline with Tween-80 111 % of control

Cc1ccccc1N1C(=O)OC(C)C1=O (configuration not stated)
inactive: dose: 100.0 mg/kg/injection, schedule: Q01DX001 (ip), vehicle: saline with Tween-80 97 % of control | dose: 200.0 mg/kg/injection, schedule: Q01DX001 (ip), vehicle: saline with Tween-80 109 % of control | dose: 400.0 mg/kg/injection, schedule: Q01DX001 (ip), vehicle: saline with Tween-80 94 % of control

CCC(/C=C/c1ccccc1)=N\NC(=O)c1ccccc1
inactive: dose: 50.0 mg/kg/injection, schedule: Q01DX005 (ip), vehicle: saline with Tween-80 96 % of control | dose: 100.0 mg/kg/injection, schedule: Q01DX005 (ip), vehicle: saline with Tween-80 96 % of control | dose: 200.0 mg/kg/injection, schedule: Q01DX005 (ip), vehicle: saline with Tween-80 95 % of control

O=C1OC(=O)C2C3C=CC(C4C=CC43)C12 (configuration not stated)
inactive: dose: 25.0 mg/kg/injection, schedule: Q01DX009 (ip), vehicle: Klucel (hydroxypropylcellulose) (HPC) 106 % of control | dose: 50.0 mg/kg/injection, schedule: Q01DX009 (ip), vehicle: Klucel (hydroxypropylcellulose) (HPC) 115 % of control | dose: 100.0 mg/kg/injection, schedule: Q01DX009 (ip), vehicle: Klucel (hydroxypropylcellulose) (HPC) 115 % of control | dose: 200.0 mg/kg/injection, schedule: Q01DX009 (ip), vehicle: Klucel (hydroxypropylcellulose) (HPC) 97 % of control

CN1C2CCC1CC(Cl)C2 (configuration not stated)
inactive: dose: 6.0 mg/kg/injection, schedule: Q01DX005 (ip), vehicle: saline 107 % of control | dose: 7.5 mg/kg/injection, schedule: Q01DX005 (ip), vehicle: saline 91 % of control | dose: 12.0 mg/kg/injection, schedule: Q01DX005 (ip), vehicle: saline 107 % of control | dose: 15.0 mg/kg/injection, schedule: Q01DX005 (ip), vehicle: saline 99 % of control | [1] 102 % of control | dose: 30.0 mg/kg/injection, schedule: Q01DX005 (ip), vehicle: saline 99 % of control
